Results taken from PubChem BioAssay (NCI).
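Tested at 5 concentrations; 48 h exposure; 96-well plates; endpoints linearly interpolated, else capped at highest concentration. TGI: total growth inhibition.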

Columns and labels:
Assay in all cases: NCI tumour cell line growth inhibition, 48 h
[1] = test system: OVCAR-3 ovarian
[2] = test system: LXFL 529 NSCLC
[3] = test system: SF-539 CNS
[4] = test system: SK-MEL-5 melanoma
[5] = test system: TK-10 renal
[6] = test system: LOX IMVI melanoma
[7] = test system: M19-MEL melanoma
[8] = test system: KM20L2 colon
[9] = test system: K-562 leukemia
[10] = test system: DLD-1 colon
[11] = test system: KM12 colon
[12] = test system: HOP-92 NSCLC
[13] = test system: NCI-H23 lung
[14] = test system: U251 CNS
[15] = test system: SK-MEL-2 melanoma
[16] = test system: OVCAR-8 ovarian
[17] = test system: NCI-H226 lung
[18] = test system: UACC-62 melanoma
[19] = test system: SNB-78 CNS
[20] = test system: MALME-3M melanoma
[21] = test system: COLO 205 colon
[22] = test system: SN12C renal
[23] = test system: DMS 114 small cell lung
[24] = test system: CCRF-CEM leukemia
[25] = test system: SK-OV-3 ovarian
[26] = test system: HOP-62 NSCLC
[27] = test system: HCT-15 colon
[28] = test system: IGROV1 ovarian
[29] = test system: M14 melanoma
[30] = test system: HCT-116 colon
[31] = test system: 786-0 renal
[32] = test system: UACC-257 melanoma
[33] = test system: SNB-75 CNS
[34] = test system: OVCAR-5 ovarian
[35] = test system: CAKI-1 renal
[36] = test system: RXF 393 renal
[37] = test system: SK-MEL-28 melanoma
[38] = test system: HT29 colon
[39] = test system: SF-295 CNS
[40] = test system: EKVX NSCLC
[41] = test system: HCC-2998 colon
[42] = test system: UO-31 renal
[43] = test system: DMS 273 small cell lung
[44] = test system: MOLT-4 leukemia
[45] = test system: NCI-H522 lung
[46] = test system: ACHN renal
[47] = test system: SW-620 colon
[48] = test system: OVCAR-4 ovarian
[49] = test system: HL-60(TB) leukemia
[50] = test system: SNB-19 CNS
[51] = test system: NCI-H460 lung
[52] = test system: SR leukemia
[53] = test system: A549 NSCLC
[54] = test system: SF-268 CNS
[55] = test system: A498 renal
[56] = test system: XF 498 CNS
[57] = test system: RPMI-8226 leukemia
[58] = test system: RXF-631 renal
[59] = test system: HOP-18 NSCLC

O=C1CCCc2ccc([N+](=O)[O-])c(O)c21
TGI [1]: > 100 µM | TGI [2]: > 100 µM | TGI [3]: > 100 µM | TGI [4]: > 100 µM | TGI [5]: > 100 µM | TGI [6]: > 100 µM | TGI [7]: > 100 µM | TGI [8]: > 100 µM | TGI [9]: > 100 µM | TGI [10]: > 100 µM | TGI [11]: > 100 µM | TGI [12]: > 100 µM | TGI [13]: > 100 µM | TGI [14]: > 100 µM | TGI [15]: > 100 µM | TGI [16]: > 100 µM | TGI [17]: > 100 µM | TGI [18]: > 100 µM | TGI [19]: > 100 µM | TGI [20]: > 100 µM | TGI [21]: > 100 µM | TGI [22]: > 100 µM | TGI [23]: > 100 µM | TGI [24]: > 100 µM | TGI [25]: > 100 µM | TGI [26]: > 100 µM | TGI [27]: > 100 µM | TGI [28]: > 100 µM | TGI [29]: > 100 µM | TGI [30]: > 100 µM | TGI [31]: > 100 µM | TGI [32]: > 100 µM | TGI [33]: > 100 µM | TGI [34]: > 100 µM | TGI [35]: > 100 µM | TGI [36]: > 100 µM | TGI [37]: > 100 µM | TGI [38]: > 100 µM | TGI [39]: > 100 µM | TGI [40]: > 100 µM | TGI [41]: > 100 µM | TGI [42]: > 100 µM | TGI [43]: > 100 µM | TGI [44]: > 100 µM | TGI [45]: > 100 µM | TGI [46]: > 100 µM | TGI [47]: > 100 µM | TGI [48]: > 100 µM | TGI [49]: > 100 µM | TGI [50]: > 100 µM | TGI [51]: > 100 µM | TGI [52]: > 100 µM | TGI [53]: > 100 µM | TGI [54]: > 100 µM | TGI [55]: > 100 µM

O=C1C(Cl)C(c2ccccc2Cl)N1n1cnc2ccccc2c1=O (stereo unspecified)
TGI [1]: > 100 µM | TGI [2]: > 100 µM | TGI [4]: > 100 µM | TGI [5]: > 100 µM | TGI [6]: > 100 µM | TGI [7]: > 100 µM | TGI [8]: > 100 µM | TGI [9]: > 100 µM | TGI [10]: > 100 µM | TGI [56]: > 100 µM | TGI [11]: > 100 µM | TGI [13]: > 100 µM | TGI [14]: > 100 µM | TGI [15]: 68.4 µM | TGI [16]: > 100 µM | TGI [17]: 91.4 µM | TGI [18]: > 100 µM | TGI [19]: > 100 µM | TGI [20]: > 100 µM | TGI [21]: > 100 µM | TGI [22]: > 100 µM | TGI [57]: > 100 µM | TGI [23]: > 100 µM | TGI [24]: > 100 µM | TGI [25]: 72.5 µM | TGI [26]: > 100 µM | TGI [27]: > 100 µM | TGI [28]: > 100 µM | TGI [29]: > 100 µM | TGI [30]: > 100 µM | TGI [31]: > 100 µM | TGI [32]: > 100 µM | TGI [33]: 59.4 µM | TGI [34]: > 100 µM | TGI [35]: > 100 µM | TGI [36]: 67.3 µM | TGI [37]: > 100 µM | TGI [38]: > 100 µM | TGI [39]: > 100 µM | TGI [40]: > 100 µM | TGI [41]: > 100 µM | TGI [42]: 73.2 µM | TGI [43]: > 100 µM | TGI [44]: > 100 µM | TGI [45]: 85.2 µM | TGI [46]: > 100 µM | TGI [47]: > 100 µM | TGI [48]: > 100 µM | TGI [49]: 57.4 µM | TGI [50]: > 100 µM | TGI [51]: > 100 µM | TGI [52]: > 100 µM | TGI [53]: > 100 µM | TGI [54]: > 100 µM

NC(=O)N/N=C(\CC1OC(=O)c2ccccc21)c1ccc([N+](=O)[O-])cc1 (stereo unspecified)
TGI [1]: > 100 µM | TGI [2]: > 100 µM | TGI [3]: 55 µM | TGI [4]: 47.2 µM | TGI [5]: > 100 µM | TGI [6]: 33.9 µM | TGI [7]: 68.1 µM | TGI [8]: 96.2 µM | TGI [10]: 47.9 µM | TGI [56]: > 100 µM | TGI [11]: 95.9 µM | TGI [14]: 39.5 µM | TGI [15]: 35.4 µM | TGI [18]: 34.8 µM | TGI [20]: 73.7 µM | TGI [21]: > 100 µM | TGI [22]: > 100 µM | TGI [57]: > 100 µM | TGI [24]: > 100 µM | TGI [26]: 53.6 µM | TGI [27]: 59.7 µM | TGI [28]: 49.8 µM | TGI [29]: > 100 µM | TGI [30]: 74.2 µM | TGI [31]: 32 µM | TGI [32]: > 100 µM | TGI [33]: 78.6 µM | TGI [35]: 71.3 µM | TGI [36]: 28.9 µM | TGI [38]: > 100 µM | TGI [39]: > 100 µM | TGI [40]: > 100 µM | TGI [41]: 32.7 µM | TGI [42]: > 100 µM | TGI [43]: 76.1 µM | TGI [44]: > 100 µM | TGI [46]: > 100 µM | TGI [47]: > 100 µM | TGI [48]: > 100 µM | TGI [49]: > 100 µM | TGI [50]: 51.6 µM | TGI [51]: > 100 µM | TGI [52]: > 100 µM | TGI [53]: > 100 µM | TGI [55]: > 100 µM

Cc1nc2ccccc2c(=O)n1/N=C(\N=Nc1ccccc1)c1ccccc1Cl
TGI [1]: > 100 µM | TGI [2]: > 100 µM | TGI [3]: 65.2 µM | TGI [4]: > 100 µM | TGI [5]: > 86.4 µM | TGI [6]: > 100 µM | TGI [58]: > 100 µM | TGI [7]: > 100 µM | TGI [8]: > 100 µM | TGI [9]: > 100 µM | TGI [10]: > 100 µM | TGI [56]: 44.9 µM | TGI [11]: > 100 µM | TGI [12]: 64.2 µM | TGI [13]: > 100 µM | TGI [14]: > 100 µM | TGI [15]: 66.3 µM | TGI [16]: > 100 µM | TGI [17]: > 100 µM | TGI [18]: > 100 µM | TGI [19]: > 100 µM | TGI [20]: > 100 µM | TGI [21]: > 100 µM | TGI [22]: > 68.1 µM | TGI [57]: > 100 µM | TGI [23]: > 90.1 µM | TGI [24]: > 100 µM | TGI [25]: 45.8 µM | TGI [26]: > 100 µM | TGI [27]: > 100 µM | TGI [28]: > 100 µM | TGI [29]: > 100 µM | TGI [31]: 99.9 µM | TGI [32]: > 100 µM | TGI [33]: 82.2 µM | TGI [34]: > 100 µM | TGI [35]: 81.4 µM | TGI [36]: 61.8 µM | TGI [37]: > 100 µM | TGI [38]: > 100 µM | TGI [39]: > 100 µM | TGI [40]: > 100 µM | TGI [41]: > 100 µM | TGI [42]: > 100 µM | TGI [43]: > 100 µM | TGI [59]: 30.1 µM | TGI [44]: > 100 µM | TGI [45]: > 74.4 µM | TGI [46]: > 100 µM | TGI [47]: > 100 µM | TGI [48]: > 100 µM | TGI [49]: > 100 µM | TGI [50]: > 100 µM | TGI [51]: > 100 µM | TGI [53]: > 100 µM | TGI [54]: > 100 µM | TGI [55]: > 100 µM
